“And” between values parts separate entries of the source, which are not always exact repeats. Equal values may be shown once.
Assays:
[1] = test system: dermal ECM deposition; settings: cited from earlier work
[2] = test system: radiation induced fibrosis; settings: IP, 1-5 μg/mouse; cited from earlier work
[3] = cited from earlier work
[4] = test system: dermal fibroblasts; experiment: Spreading and contractile activity of dermal fibroblasts on Type I collagen; type: cell-based, human
Protocol: Inhibitors of cellulite formation are also identified by observing the effect of the test compound on fibroblast behavior. In this assay, a control population of primary dermal fibroblasts are cultured in a matrix of Type I collagen, mimicking the interstitial matrix of the dermis and hypodermis, such that the fibroblasts attach to the substratum and spread, exerting contractile force on the surrounding interstitial matrix. In the test population, primary dermal fibroblasts are incubated on a matrix of Type I collagen in the presence of a test compound for a predetermined length of time, e.g., 24 hrs. The ability of the dermal fibroblasts to attach to the substratum and spread is then observed.
An assay is provided to test the effects of HF and other selective Th17 inhibitors on the behavior of cells likely to provide the basis for the structural features of cellulite—dermal fibroblasts and myofibroblasts. When human primary dermal fibroblasts are cultured in a matrix of Type I collagen, mimicking the interstitial matrix of the dermis and hypodermis, they attach to the substratum and spread, exerting contractile force on the surrounding interstitial matrix. […] The ability of the dermal fibroblasts to attach and spread when cultured in the presence of the Th17 inhibitor is detected.

[5] = test system: primary T cells; type: cell-based
Protocol: The non-specific cytoxicity of HF in both normal and transformed T-cells at high doses was evaluated. Anti-CD3/anti-CD28 activated primary T cells were harvested 6 days after activation and cultured in the presence of IL-2 with or without HF (100 nM). As a positive control, some T cells were cultured without IL-2 to induce apoptosis (FIG. 3A). Jurkat T cells, a transformed T cell leukemia line, were cultured in complete medium with or without HF (100 nM) as indicated (FIG. 3B). Both primary and Jurkat T cells were cultured for 30 hours and programmed cell death, i.e. apoptosis, was determined by Annexin V staining and propidium iodide (PI) uptake and cells were analyzed by flow cytometry. The percent of apoptotic T cells at each time point was plotted and was defined as Annexin V^+ PI^−. […] In further experiments, titrating amounts of HF were added to primary T cells and apoptosis was determine as above at the indicated time points. At 100 nM HF, but not 30 nM or lower, generalized T-cell apoptosis was observed (FIG. 3C).

[6] = test system: splenocytes; experiment: In vivo activation of the AAR pathway in splenocytes of treated mice; parameters: species or system C57B/6 mice; settings: 2.5 μg HF i.p., 6 hours post injection
Protocol: FIG. 20A is a graph depicting splenocytes from control- and HF-treated mice. C57B/6 mice were injected i.p. with vehicle (DMSO) or 2.5 μg HF. Spleens were harvested 6 hours post injection, red blood cells were lysed and total splenocytes were counted. Data are presented as mean cell counts±SD from 2 mice per group.
FIG. 20C is a graph depicting eIF2α expression in control- and HF-treated mice. Splenocytes from mice injected with DMSO or HF as above were harvested 6 hours post injection. Red blood cells were lysed and immunoblotting was performed on whole cell extracts for phosphorylated or total eIF2α as indicated.
FIG. 20D is a graph depicting the results of quantitative real-time PCR (qPCR) experiments performed for AAR-associated gene expression (Asns, Gpt2, eIF4Ebp1) using cDNA generated from splenocytes of mice injected with DMSO or HF as above. Expression of AAR-associated genes were normalized to Hprt levels and data are presented as mean relative expression from duplicate samples±SD.

[7] = test system: TGFβ signaling; experiment: TGFβ signaling in T and B cells (Smad phosphorylation, lymphocyte responses to TGFβ); type: cell-based, mouse; settings: HF 10 nM (2.5-40 nM for Smad); SB-431542 10 μM
Protocol: DMSO, 10 nM HF, 10 nM MAZ1310 or 10 μM SB-431542 was added as indicated at the time of activation and intracellular cytokine staining was performed on expanded T cells on day 5 as in FIG. 14B
FIG. 15B is an illustration depicting the analysis of CD8^+ T cells that were activated in the presence or absence of TGFβ and cultured with DMSO, 10 nM HF, 10 nM MAZ1310 or 10 μM SB-431542. Expanded cells were restimulated on day 5 and intracellular staining was performed as above.
FIG. 15C is an illustration depicting the analysis of CFSE-labeled B cells that were activated by LPS stimulation in the presence or absence of TGFβ plus DMSO, 10 nM HF, 10 nM MAZ1310 or 10 μM SB-431542. Intracellular IL-6 production in B cells re-stimulated with PMA plus ionomycin, or cell-surface IgA expression was determined 4 days after activation by FACS analyses.
T cells were then activated in the presence or absence of 3 ng/ml TGFβ. Whole cell extracts were prepared after 1 hour of stimulation and western blot analyses were performed using the indicated antibodies.
Western blotting: Whole cell lysates were generated from T cells activated for the indicated times. For STAT3 and Smad2/3 western blots cells were harvested, washed in PBS and lysed in 50 mM Tris, pH 7.4, 0.1% SDS, 1% Triton-×100, 140 mM NaCl, 1 mM EDTA, 1 mM EGTA supplemented with protease inhibitors tablets (Roche—Germany), 1 mM NaF and 1 mM Na3VO4. […]

[8] = rabbit, in vivo; cited from earlier work

In the case of `O=C(CC1NCCCC1O)Cn1cnc2cc(Br)c(Cl)cc2c1=O` (racemic) [HF, 7-bromo-6-chloro-3-[3-(3-hydroxy-2-piperidinyl)-2-oxopropyl]-4(3H)-quinazolinone], the “excess dermal ECM deposition” value ([1]; intra-peritoneally, added to food, or applied locally) is listed as “reduces excess dermal ECM deposition”, the wound healing ([1]; topical HF, animal models) is listed as “facilitate wound healing” and the radiation induced fibrosis [2] is listed as “prevented radiation induced fibrosis”. For the same molecule, the “toxic effect in mice” value [2] was “without evident toxic effect”, the peak plasma concentration ([3]; oral 3.5 mg/day) was 3 ng/ml and ~8 nM and the “dose at which dose limiting toxicity (nausea and vomiting) occurred” value ([3]; oral) was 3.5 mg/day. The “recommended tolerated dose for chronic treatment” value ([3]; oral) was 0.5 mg/day, the “spreading and contractile activity of dermal fibroblasts” value [4] was “prevents the spreading and contractile activity” and the “HF concentration at which generalized T-cell apoptosis was not observed” value [5] was ≤ 30 nM. For the same molecule, the “HF concentration at which generalized T-cell apoptosis was observed” value [5] was 100 nM, the “eIF2α phosphorylation and AAR-associated gene expression in splenocytes of treated mice” value [6] was “rapidly activates” and the “TGFβ-induced Smad phosphorylation and other lymphocyte responses to TGFβ” value [7] was “inhibited neither”. For the same molecule, the “HF in serum after topical treatment of rabbits” value [8] was “undetectable in serum”.

Source: patent US20090123389A1, “Methods for modulating Th17 cell development in the treatment and prevention of cellulite” (priority 2007, published 2009)
